From patent US8546421B1, “Oncogenic-RAS-signal dependent lethal compounds” (The Trustees of Columbia University in the City of New York, priority 2007, dated 2013)
“And” between values parts separate entries of the source, which are not always exact repeats. Identical values can stand only once. “Also recorded” adds a separate entry of the source.

What was measured:
HT1080 cells = assay: Alamar blue assay with bioactive suppressors in HT1080; type: cell-based, human; conditions: 150 μM DFOM, 10 μM U0126, 50 μM SU6656, or 100 μM Vitamin E
Protocol: (§1) On the day of experiment, assay plates were prepared by seeding 3,000 HT1080, HT1080-pLKO, HT1080-TfR1 KD, Calu-1, Calu-1-pLKO, or Calu-1-509 cells per well in 36 μL of growth media to black, clear bottom 384-well plates. Also, assay plates were prepared by seeding 1,500 shRNA infected HT1080 or Calu-1 cells per well. Cells in assay plates were treated with each lethal compound in a 2-fold dilution series by transferring 4 μL solution from a 10× lethal plate of Erastin, Compound 3, Compound 27, or Compound 36. […] Percent growth inhibition (% GI) was calculated using fluorescence intensity values.

U251 = assay: NCI60 anti-cancer screening; conditions: for GI50 / CC50: Homo sapiens; for GI50: U-251; for CC50: U-251, read-out: LC 50%; for GI 100%: U251, CNS Cancer
[1] = tested on: 60 different human cancer cell lines (the NCI60 panel); assay: NCI60 anti-cancer screening, whole panel; type: cell-based
Protocol: NCI60 anti-cancer screening (“NCI60 test”) is a system that provides an opportunity to assess a drug candidate's potency and selectivity at a relatively early stage of drug discovery. […] Such compounds would be expected to kill sensitive cancer cells while having minimal effect on healthy cells in a predetermined concentration range. NCI60 anti-cancer screening makes use of 60 cancer cell lines from different human tissue origins. Cells are seeded on a 96-well plate, treated with lethal compounds in 5-point, 10-fold dilution series pattern starting at 100 μM (i.e. 10 nM, 100 nM, 1 μM, 10 μM, 100 μM) for 2 days, and measured for cell viability using sulforhodamine B dye. The optical densities of treated samples are determined using a plate reader and percent growth value is calculated by processing the optical density value.
The entire NCI60 test is replicated at least twice to ensure consistency of the data and to determine accurate GI50, TGI and LC50 values. The panel of results for each candidate compound in the NCI60 test is known as the “sensitivity profile.”

CAKI-1 = assay: NCI60 anti-cancer screening; conditions: for GI 100% / GI50: CAKI-1; for GI 100%: Renal Cancer; for GI50 / CC50: Homo sapiens; for CC50: CAKI-1, read-out: LC 50%
[2] = tested on: Calu-1 cells expressing shRNAs targeting HRAS, NRAS or KRAS; assay: Drug sensitivity after shRNA knockdown of RAS; type: cell-based, human; conditions: alamar blue
Protocol: On day one, 3×10^5 Calu-1 cells or 2×10^5 HT1080 cells were seeded in 10-cm dishes; on day 2, frozen virus stock was thawed at 37° C., hexadimethrine bromide (polybrene) (Sigma, cat.#H9268) was added to the virus solution at a final concentration of 8 μg/mL and growth media from cell culture was replaced with the virus/polybrene mixture. The culture was returned to the tissue culture incubator for 2 hours, with rocking of the dishes every 30 min in order to prevent drying. After 2 h, 10 mL growth medium was added, the culture was incubated for 2 days, and cells stably expressing shRNA were selected by adding puromycin (Sigma, cat.#P9620) at a final concentration of 1.5 μg/mL.
as §1

[3] = Maximum tolerated dose in mice; type: in vivo; conditions: mouse, in vivo, ip, single intraperitoneal injection in sterile PBS
Protocol: (§2) The maximum tolerated dose of Compound 27 was tested in mice.
(§3) Each mouse in the study was administered a single intraperitoneal injection of Compound 27 dissolved in sterile PBS at 100 mg/kg, 200 mg/kg, or 400 mg/kg.

mice = assay: Maximum tolerated dose in mice; type: in vivo; conditions: single intraperitoneal injection at 100, 200 or 400 mg/kg
Protocol: as §2, §3

A549/ATCC = assay: NCI60 anti-cancer screening; conditions: for GI 100%: A549/ATCC, Non-small cell lung carcinoma; for GI50 / CC50: Homo sapiens; for GI50: A549; for CC50: A549, read-out: LC 50%
HCC-2998 = assay: NCI60 anti-cancer screening; conditions: for GI 100%: HCC-2998, Colon Cancer; for GI50 / CC50: Homo sapiens; for GI50: HCC 2998; for CC50: HCC 2998, read-out: LC 50%
[4] = tested on: BJeH, BJeHLT, BJeLR and DRD cells; assay: Cell growth inhibition by stereoisomers of Compound 27; conditions: Homo sapiens
OVCAR-5 = assay: NCI60 anti-cancer screening; conditions: for GI50 / CC50: Homo sapiens; for GI50 / GI 100%: OVCAR-5; for CC50: OVCAR-5, read-out: LC 50%; for GI 100%: Ovarian Cancer
NCI-H322M = assay: NCI60 anti-cancer screening; conditions: for GI50 / CC50: Homo sapiens; for CC50: read-out: LC 50%; for GI 100%: Non-small cell lung carcinoma
HOP-62 = assay: NCI60 anti-cancer screening; type: cell-based; conditions: Non-small cell lung carcinoma
[5] = tested on: BJ-TERT/LT/ST/RAS^V12 cells; assay: Effect of cell cycle inhibitors on Compound 36-induced cell death; type: cell-based, human; conditions: apigenin, monastrol, olomoucine, nocodazole, hydroxyurea, colchicine, rapamycin
Protocol: BJ-TERT/LT/ST/RAS^V12 cells were seeded in a 384-well assay plate at a concentration of 4,000 cells per well in 32 μL culture volume. Cells were treated with cell cycle inhibitors by transferring 4 μL of 500 μM apigenin (Sigma, cat.#A3145), 1.5 mM monastrol (Sigma, cat.#M8515), 1 mM olomoucine (Sigma, cat.#00886), 2 μM Nocodazole (Sigma, cat.#M1404), 6 mM Hydroxy-urea (Sigma, cat.#H8627), 0.1 μM colchicine (Sigma, cat.#D6165), or 50 μM Rapamycine (Sigma, cat.#RO395) in growth media to the assay plate. […] The assay plate was incubated for 24 hours and alamar blue was added to the assay plate at a final concentration of 10%.

COC(=O)c1ccc(C2c3[nH]c4ccccc4c3CC(C(=O)OC)N2C(=O)CCl)cc1 (centres unmarked) [Compound 27]
treatments that inhibit compound-induced cell death in HT1080 cells (HT1080 cells): iron chelators, MEK inhibitors or non-receptor tyrosine kinase inhibitors effectively inhibited | GI50 (U251): 1100 nM | CC50 (U251): 4790 nM | GI 100% (U251): 2.3 µM | difference in sensitivity between resistant and sensitive cell lines [1]: up to 10^4 fold | potency / selectivity in NCI60 (in words) [1]: nanomolar (nM) concentration range | GI 100% (CAKI-1): 0.0381 µM | GI50 (CAKI-1): 21.1 nM | CC50 (CAKI-1): 68.7 nM | sensitivity of Calu-1 cells after RAS shRNA compared with parental cells [2]: more resistant; also recorded: less effective | MTD [3]: > 400 mg/kg | mortality (mice): None of the mice died | GI 100% (A549/ATCC): >10 µM | GI50 (A549/ATCC): 2510 nM | CC50 (A549/ATCC): > 10000 nM | GI 100% (HCC-2998): 5.1 µM | GI50 (HCC-2998): 2010 nM | CC50 (HCC-2998): > 10000 nM | EC50 [4]: ~0.05 µg/mL and ~100 nM | GI50 (OVCAR-5): 2240 nM | CC50 (OVCAR-5): > 10000 nM | GI 100% (OVCAR-5): 5.71 µM | GI50 (NCI-H322M): 3600 nM | CC50 (NCI-H322M): > 10000 nM | GI 100% (NCI-H322M): >10 µM

C=C1CCC2C(C)(C)CCC[C@]2(C)C1CC/C(C)=C\CC/C(C)=N/NC(N)=S (some centres unmarked) [Compound 36]
GI50 (U251): 470 nM | CC50 (U251): 4120 nM | GI 100% (U251): 1.7 µM | GI50 (HOP-62; Homo sapiens): 405 nM | LC50 (HOP-62; Homo sapiens): 3770 nM | GI 100% (HOP-62): 1.42 µM | GI 100% (CAKI-1): 0.413 µM | GI50 (CAKI-1): 165 nM | CC50 (CAKI-1): 1080 nM | GI 100% (A549/ATCC): 2.4 µM | GI50 (A549/ATCC): 1110 nM | CC50 (A549/ATCC): 5150 nM | GI 100% (HCC-2998): 0.733 µM | GI50 (HCC-2998): 240 nM | CC50 (HCC-2998): 2680 nM | GI50 (OVCAR-5): 492 nM | CC50 (OVCAR-5): 4330 nM | GI 100% (OVCAR-5): 1.62 µM | GI50 (NCI-H322M): 606 nM | CC50 (NCI-H322M): 4930 nM | GI 100% (NCI-H322M): 1.99 µM | effect of cell cycle blockers on compound-induced cell death [5]: None of cell cycle blockers were effective
